Columns and labels:
Phytophthora infestans = assay type: in vivo; settings: 200 ppm; tomato leaf disks; preventative, inoculated 1 day after application; assessed 5-7 days after application
Plasmopara viticola = assay type: in vivo; settings: 200 ppm; grape vine leaf disks; preventative, inoculated 1 day after application; assessed 6-8 days after application
Pythium ultimum = test: Pythium ultimum/Liquid Culture (Seedling Damping Off); assay type: cell-based; settings: Globisporangium ultimum, read-out: control of Pythium ultimum (inhibition of growth, photometric)

COC(=O)Nc1ccc(-c2cnc3c(C)cc(C(=O)N(Cc4cnn(C)c4)c4ccc(F)c(OC)c4)cn23)cn1 [Compound 1, methyl N-[5-[6-[(4-fluoro-3-methoxy-phenyl)-[(1-methylpyrazol-4-yl)methyl]carbamoyl]-8-methyl-imidazo[1,2-a]pyridin-3-yl]-2-pyridyl]carbamate]
control of Phytophthora infestans (percent disease control compared to untreated) (Phytophthora infestans): at least 80%
control of Plasmopara viticola (percent disease control compared to untreated) (Plasmopara viticola): at least 80%
inhibition at 20 ppm (Pythium ultimum): ≥ 80%

COC(=O)Nc1ccc(-c2cnc3ccc(C(=O)N(Cc4cnn(C)c4)c4ccc(F)c(OC)c4)cn23)cn1 [Compound 2, methyl N-[5-[6-[(4-fluoro-3-methoxy-phenyl)-[(1-methylpyrazol-4-yl)methyl]carbamoyl]imidazo[1,2-a]pyridin-3-yl]-2-pyridyl]carbamate]
control of Phytophthora infestans (percent disease control compared to untreated) (Phytophthora infestans): at least 80%
control of Plasmopara viticola (percent disease control compared to untreated) (Plasmopara viticola): at least 80%
inhibition at 20 ppm (Pythium ultimum): ≥ 80%

COC(=O)Nc1ccc(-c2cnc3ccc(C(=O)N(Cc4ccco4)c4ccc(Cl)cc4)cn23)cn1 [Compound 6, methyl N-[5-[6-[(4-chlorophenyl)-(2-furylmethyl)carbamoyl]imidazo[1,2-a]pyridin-3-yl]-2-pyridyl]carbamate]
control of Phytophthora infestans (percent disease control compared to untreated) (Phytophthora infestans): at least 80%
inhibition at 20 ppm (Pythium ultimum): ≥ 80%

COC(=O)Nc1ccc(-c2cnc3ccc(C(=O)N(Cc4ccccc4)c4ccc(F)cc4)cn23)cn1 [Compound 7, methyl N-[5-[6-[benzyl-(4-fluorophenyl)carbamoyl]imidazo[1,2-a]pyridin-3-yl]-2-pyridyl]carbamate]
inhibition at 20 ppm (Pythium ultimum): ≥ 80%

COC(=O)Nc1ccc(-c2cnc3ccc(C(=O)N(Cc4cnn(C)c4)c4ccc(F)cc4)cn23)cn1 [Compound 8, methyl N-[5-[6-[(4-fluorophenyl)-[(1-methylpyrazol-4-yl)methyl]carbamoyl]imidazo[1,2-a]pyridin-3-yl]-2-pyridyl]carbamate]
control of Phytophthora infestans (percent disease control compared to untreated) (Phytophthora infestans): at least 80%
control of Plasmopara viticola (percent disease control compared to untreated) (Plasmopara viticola): at least 80%
inhibition at 20 ppm (Pythium ultimum): ≥ 80%

Reference: patent publication US20260293899A1 (priority 2023, published 2026)
